Source: patent publication US20060074243A1, “Hydroxamic acid and amide compounds and their use as protease inhibitors” (Pharmacia Corporation, priority 2002, published 2006)

Experiments:
Assay in all cases: In vitro MMP inhibition analysis (fluorogenic peptide substrate cleavage), Ki
Assay type in all cases: biochemical
Settings in all cases: Table 2
Human recombinant MMP-2 = molecular target: T1, Human recombinant MMP-2 (Homo sapiens, UniProt P08253)
T1 construct: made in house; host or cells: MMP-2-transfected p2AHT2 cells
T1 sequence (P08253 110-660): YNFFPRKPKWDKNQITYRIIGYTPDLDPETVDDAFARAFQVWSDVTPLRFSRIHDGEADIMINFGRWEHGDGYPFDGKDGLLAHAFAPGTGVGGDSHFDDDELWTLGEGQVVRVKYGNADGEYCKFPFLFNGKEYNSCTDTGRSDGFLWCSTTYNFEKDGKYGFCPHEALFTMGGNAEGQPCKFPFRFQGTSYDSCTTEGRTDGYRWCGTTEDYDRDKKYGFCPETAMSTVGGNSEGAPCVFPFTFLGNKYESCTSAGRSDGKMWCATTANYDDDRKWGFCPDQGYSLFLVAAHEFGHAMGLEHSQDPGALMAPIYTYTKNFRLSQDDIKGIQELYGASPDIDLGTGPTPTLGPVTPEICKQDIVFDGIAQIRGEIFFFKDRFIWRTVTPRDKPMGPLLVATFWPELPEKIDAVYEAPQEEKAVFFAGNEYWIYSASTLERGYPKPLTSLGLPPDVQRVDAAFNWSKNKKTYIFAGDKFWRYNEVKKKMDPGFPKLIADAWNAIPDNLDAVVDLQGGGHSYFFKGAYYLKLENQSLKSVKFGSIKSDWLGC
Outline: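 Human recombinant MMP-2 from transfected p2AHT2 cells was activated with APMA or trypsin and incubated 1 h at room temperature with compounds and 4 μM MCA-RPLGL(Dpa)ARER-NH2. Buffer was pH 7.5 Tris/NaCl/CaCl2, and fluorescence was read at ex 330/em 420 nm. Ki was fitted by Morrison's equation without substrate correction.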

Human recombinant MMP-9 = molecular target: T2, Human recombinant MMP-9 (Homo sapiens, UniProt P14780)
T2 construct: made in house; host or cells: MMP-9-transfected HT1080 cells (spent media)
Outline: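 Recombinant MMP-9 purified from transfected HT1080 cell media, activated with APMA, trypsin or recombinant MMP-3, assayed in Tris buffer pH 7.5 with CaCl2 and 4 μM fluorogenic MCA/Dpa peptide, 1 h at room temperature (ex 330/em 420 nm). Ki from Morrison-equation regression of velocity; substrate at or below Km, uncorrected.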

Human recombinant MMP-14 = molecular target: T3, Human recombinant MMP-14 (Homo sapiens, UniProt P50281)
T3 construct: The catalytic domain enzyme was expressed in E. coli inclusion bodies, solubilized in urea; made in house
Outline: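 Refolded catalytic domain of MMP-14 expressed in E. coli, activated with APMA or trypsin, incubated 1 h at room temperature with 4 μM MCA-peptide substrate in Tris buffer pH 7.5 with CaCl2. Cleavage rate followed by fluorescence (ex 330/em 420 nm). Ki from Morrison-equation fit; substrate at or below Km, so no substrate correction.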

T2 sequence (P14780 107-707 limits assumed): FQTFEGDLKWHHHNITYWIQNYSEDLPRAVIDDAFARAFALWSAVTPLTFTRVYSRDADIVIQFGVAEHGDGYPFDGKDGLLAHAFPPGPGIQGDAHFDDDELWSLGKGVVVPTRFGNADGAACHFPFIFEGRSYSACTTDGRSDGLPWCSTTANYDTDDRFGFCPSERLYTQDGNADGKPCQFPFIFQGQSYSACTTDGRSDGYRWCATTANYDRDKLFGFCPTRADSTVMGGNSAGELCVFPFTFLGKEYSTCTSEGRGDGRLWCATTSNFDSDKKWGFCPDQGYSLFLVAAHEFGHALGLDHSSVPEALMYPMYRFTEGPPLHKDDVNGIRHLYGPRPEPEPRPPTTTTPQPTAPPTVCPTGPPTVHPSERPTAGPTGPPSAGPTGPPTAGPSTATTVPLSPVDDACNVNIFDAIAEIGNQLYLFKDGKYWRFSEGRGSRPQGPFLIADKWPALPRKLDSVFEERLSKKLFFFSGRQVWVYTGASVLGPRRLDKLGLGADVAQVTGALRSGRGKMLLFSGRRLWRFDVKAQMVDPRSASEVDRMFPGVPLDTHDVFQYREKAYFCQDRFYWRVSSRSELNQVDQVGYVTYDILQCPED

| Compound | Ki (Human recombinant MMP-2) [nM] | Ki (Human recombinant MMP-9) [nM] | Ki (Human recombinant MMP-14) [nM] |
| --- | --- | --- | --- |
| CO[C@H]1CC[C@](C(=O)NO)(S(=O)(=O)c2ccc(-c3cnc(CCC(F)(F)C(F)(F)F)cn3)cc2)CC1 [Example 183] | 0.35 | 0.14 | 798 |
| CCCCNC(=O)c1cnc(-c2ccc(S(=O)(=O)C3(C(=O)NO)CCOCC3)cc2)cn1 [Example 184] | 0.8 | 13.1 | 1290 |
| CC(C)CCNC(=O)c1cnc(-c2ccc(S(=O)(=O)C3(C(=O)NO)CCOCC3)cc2)cn1 [Example 185] | 0.91 | 13.5 | 2050 |
| CC(C)CNC(=O)c1cnc(-c2ccc(S(=O)(=O)C3(C(=O)NO)CCOCC3)cc2)cn1 [Example 186] | 2.33 | 21.7 | 4610 |
| COCCO[C@H]1CC[C@](C(=O)NO)(S(=O)(=O)c2ccc(-c3cnc(CCC(F)(F)C(F)(F)F)cn3)cc2)CC1 [Example 187] | 0.32 | 0.16 | 625 |
| O=C(NO)C1(S(=O)(=O)c2ccc(-c3ccc4c(c3)OCO4)cc2)CCOCC1 [Example 188] | 0.13 | 4.23 | 27.1 |
| O=C(NCC1CCCCC1)c1cnc(-c2ccc(S(=O)(=O)C3(C(=O)NO)CCOCC3)cc2)cn1 [Example 190] | 1.7 | 32.3 | 4700 |
| O=C(NCC1CC1)c1cnc(-c2ccc(S(=O)(=O)C3(C(=O)NO)CCOCC3)cc2)cn1 [Example 191] | 0.75 | 1.43 | 930 |
| O=C(NCC(F)(F)C(F)(F)F)c1cnc(-c2ccc(S(=O)(=O)C3(C(=O)NO)CCOCC3)cc2)cn1 [Example 192] | 0.89 | 41.1 | 5920 |
| O=C(NO)C1(S(=O)(=O)c2ccc(-c3nc4ccccc4o3)cc2)CCOCC1 [Example 193] | 1.34 | 11.5 | 96.7 |
| O=C(NO)C1(S(=O)(=O)c2ccc(-c3cnc4ccccc4n3)cc2)CCOCC1 [Example 194] | 176 | 1260 | > 10000 |
| O=C(NO)C1(S(=O)(=O)c2ccc(-c3nc4ccccc4s3)cc2)CCOCC1 [Example 195] | 5.74 | 32.2 | 1790 |
| O=C1c2ccccc2C(=O)N1CCCOc1cccc(-c2ccc(S(=O)(=O)C3(C(=O)NO)CCOCC3)cc2)c1 [Example 196] | 947 | 430 | > 10000 |
| O=C(NO)C1(S(=O)(=O)c2ccc(-c3ccccc3CO)cc2)CCOCC1 [Example 197] | 6200 | > 10000 | > 10000 |
| O=C(NC1CCCC1)c1ccc(-c2ccc(S(=O)(=O)C3(C(=O)NO)CCOCC3)cc2)nc1 [Example 198] | 2.16 | 28.4 | 5120 |
| C#CCN1CCC(C(=O)NO)(S(=O)(=O)c2ccc(-c3ccc(CCC(F)(F)C(F)(F)F)cn3)cc2)CC1 [Example 199] | 0.085 | 0.147 | 586 |
| COCCN1CCC(C(=O)NO)(S(=O)(=O)c2ccc(-c3cnc(OCCC4CCCC4)cn3)cc2)CC1 [Example 200] | 0.404 | 0.648 | 942 |
| O=C(NO)C1(S(=O)(=O)c2ccc(-c3ccc(CCC(F)(F)C(F)(F)F)cn3)cc2)CCOCC1 [Example 201] | 0.045 | 0.097 | 221 |
| O=C(NO)C1(S(=O)(=O)c2ccc(-c3ccc(CCCC(F)(F)F)cn3)cc2)CC=CC1 [Example 202] | 0.32 | 0.578 | 1260 |
| CCCCNC(=O)c1ccc(-c2ccc(S(=O)(=O)C3(C(=O)NO)CCOCC3)cc2)nc1 [Example 203] | 1.77 | 61.4 | 7920 |

| Compound | Ki (Human recombinant MMP-2) [nM] | Ki (Human recombinant MMP-9) [nM] | Ki (Human recombinant MMP-14) [nM] |
| --- | --- | --- | --- |
| CC(C)NC(=O)c1ccc(-c2ccc(S(=O)(=O)C3(C(=O)NO)CCOCC3)cc2)nc1 [Example 204] | 4.32 | 11.8 | 6370 |
| CC(C)(C)NC(=O)c1ccc(-c2ccc(S(=O)(=O)C3(C(=O)NO)CCOCC3)cc2)nc1 [Example 205] | 15.1 | 21.8 | 7630 |
| CCCCc1cnc(-c2ccc(S(=O)(=O)C3(C(=O)NO)CCN(CCOC)CC3)cc2)cn1 [Example 206] | 2.98 | 1.8 | > 10000 |
| CC[C@@H](C)NC(=O)c1ccc(-c2ccc(S(=O)(=O)C3(C(=O)NO)CCOCC3)cc2)nc1 [Example 207] | 4.99 | 78 | > 10000 |
| CC[C@H](C)NC(=O)c1ccc(-c2ccc(S(=O)(=O)C3(C(=O)NO)CCOCC3)cc2)nc1 [Example 208] | 10.6 | 39.4 | > 10000 |
| COCCOC1CCC(C(=O)NO)(S(=O)(=O)c2ccc(-c3ccc(CCCC(F)(F)F)cn3)cc2)CC1 (stereo not drawn) [Example 209] | 0.081 | 0.138 | 272 |
| COCCOC1CCC(C(=O)NO)(S(=O)(=O)c2ccc(-c3cnc(CCCC(F)(F)F)cn3)cc2)CC1 (stereo not drawn) [Example 210] | 1.01 | 0.75 | 3430 |
| O=C(CCc1nccs1)c1ccc(-c2ccc(S(=O)(=O)C3(C(=O)NO)CCOCC3)cc2)cc1 [Example 211] | 0.246 | 9.78 | 773 |
| O=C(Cc1ccc(-c2ccc(S(=O)(=O)C3(C(=O)NO)CCOCC3)cc2)nc1)N1CCCCC1 [Example 212] | 34.7 | 437 | > 10000 |
| CCN1CCC(C(=O)NO)(S(=O)(=O)c2ccc(-c3cnc(CCC(F)(F)F)cn3)cc2)CC1 [Example 213] | 3.57 | 4.8 | > 10000 |
| COCCN1CCC(C(=O)NO)(S(=O)(=O)c2ccc(-c3cnc(CCC(F)(F)F)cn3)cc2)CC1 [Example 214] | 2.09 | 2.05 | 6980 |
| O=C(NO)C1(S(=O)(=O)c2ccc(-c3cnc(CCC(F)(F)F)cn3)cc2)CCN(C2CC2)CC1 [Example 215] | 1.15 | 1 | 5070 |
| C#CCN(C)C(=O)c1ccc2cc(-c3ccc(S(=O)(=O)C4(C(=O)NO)CCOCC4)cc3)ccc2c1 [Example 216] | 2.51 | 13.3 | 2550 |
| CCN1CCC(C(=O)NO)(S(=O)(=O)c2ccc(-c3cnc(CCCC(F)(F)F)cn3)cc2)CC1 [Example 217] | 9.06 | 5.22 | > 10000 |
| O=C(NO)C1(S(=O)(=O)c2ccc(-c3cnc(CCCC(F)(F)F)cn3)cc2)CCN(C2CC2)CC1 [Example 218] | 1.93 | 0.938 | > 10000 |
| Cc1nc(CCc2ccc(-c3ccc(S(=O)(=O)C4(C(=O)NO)CCOCC4)cc3)cc2)no1 [Example 219] | 0.588 | 9.25 | 1760 |
| O=C(NCC1CC1)c1ccc2cc(-c3ccc(S(=O)(=O)C4(C(=O)NO)CCOCC4)cc3)ccc2c1 [Example 220] | 0.539 | 50.5 | > 2500 |
| CN(C)C(=O)c1ccc2cc(-c3ccc(S(=O)(=O)C4(C(=O)NO)CCOCC4)cc3)ccc2c1 [Example 221] | 5.61 | 16.7 | 6850 |
| O=C(c1ccc2cc(-c3ccc(S(=O)(=O)C4(C(=O)NO)CCOCC4)cc3)ccc2c1)N1CCOCC1 [Example 222] | 7.8 | 29.5 | > 10000 |
| O=C(c1ccc2cc(-c3ccc(S(=O)(=O)C4(C(=O)NO)CCOCC4)cc3)ccc2c1)N1CCCCC1 [Example 223] | 11 | 34.3 | > 10000 |
